Assay results as given in patent US7531482B2, “Thieno-pyrimidine compounds having fungicidal activity” (Dow AgroSciences LLC, priority 2005, dated 2009).

Key:
Assay type in all cases: in vivo
[1] = tested on: Leptosphaeria nodorum; assay: Glume Blotch of Wheat (LEPTNO) whole-plant disease control test; conditions: Parastagonospora nodorum, foliar; 200 ppm applied to foliage of wheat; inoculated one day after treatment; read-out: LEPTNO disease control
[2] = tested on: Mycosphaerella graminicola=Septoria tritici; assay: Speckled Leaf Blotch of Wheat (SEPTTR) whole-plant disease control test; conditions: Mycosphaerella, foliar, 75 ppm applied to foliage of wheat; read-out: SEPTTR disease control
[3] = tested on: Phytophthora infestans; assay: whole plant or invertebrate; conditions: Phytophthora infestans, in Solanum lycopersicum, foliar, read-out: PHYTIN disease control, 200 ppm applied to foliage of tomato; inoculated one day after treatment
[4] = tested on: Colletotricum lagenarium; assay: Cucumber Anthracnose (COLLLA) whole-plant disease control test; conditions: Cucumis sativus, foliar; 200 ppm applied to foliage of cucumber; inoculated one day after treatment; read-out: COLLLA disease control
[5] = tested on: Magnaporthe grisea=Pyricularia oryzae; assay: whole plant or invertebrate; conditions: Pyricularia oryzae, foliar, read-out: PYRIOR disease control, 200 ppm applied to foliage of rice; inoculated one day after treatment
[6] = tested on: Erysiphe cichoracaerum; assay: Cucumber Powdery Mildew (ERYSCI) whole-plant disease control test; conditions: Erysiphe, foliar; 200 ppm applied to foliage of cucumber; inoculated one day after treatment; read-out: ERYSCI disease control
[7] = tested on: Puccinia recondita tritici; assay: Leaf Rust of Wheat (PUCCRT) whole-plant disease control test; conditions: Puccinia recondita, foliar, 200 ppm applied to foliage of wheat; inoculated one day after treatment; read-out: PUCCRT disease control

Row | SMILES | pest or weed control at 200 ppm [1] | pest or weed control at 75 ppm [2] | pest or weed control at 200 ppm [3] | pest or weed control at 200 ppm [4] | pest or weed control at 200 ppm [5] | pest or weed control at 200 ppm [6] | pest or weed control at 200 ppm [7]
1 | O=Cc1ccc(Oc2ccc(CCNc3ncnc4scc(Cl)c34)cc2)nc1 [Compound 24] | 0 to 49% | 50 to 79% | 50 to 79% | 50 to 79% | 80 to 100% | 0 to 49% | 80 to 100%
2 | CC(C)OC(=O)c1cnc(Oc2ccc(CCNc3ncnc4scc(Cl)c34)cc2)c(Cl)c1 [Compound 106] | 0 to 49% | 50 to 79% | 0 to 49% | 0 to 49% | 80 to 100% | 0 to 49% | 80 to 100%
3 | COC(=O)c1cccc(Oc2ccc(CCNc3ncnc4scc(Cl)c34)cc2)n1 [Compound 79] | 0 to 49% | 0 to 49% | 80 to 100% | 0 to 49% | 80 to 100% | 0 to 49% | 80 to 100%
4 | N#Cc1ccnc(Oc2ccc(CCNc3ncnc4scc(F)c34)cc2)c1 [Compound 55] | 0 to 49% | 50 to 79% | 50 to 79% | 80 to 100% | 0 to 49% | 50 to 79% | 80 to 100%
5 | O=[N+]([O-])c1ccc(Oc2ccc(CCNc3ncnc4scc(Cl)c34)cc2)nc1 [Compound 3] | 50 to 79% | 50 to 79% | 80 to 100% | 50 to 79% | 80 to 100% | 50 to 79% | 80 to 100%
6 | FC(F)(F)c1cnc(Oc2ccc(CCNc3ncnc4scc(Cl)c34)cc2)c(Cl)c1 [Compound 64] | 0 to 49% | 80 to 100% | 0 to 49% | 50 to 79% | 80 to 100% | 80 to 100% | 80 to 100%
7 | Clc1csc2ncnc(NCCc3ccc(Oc4ncc(Br)s4)cc3)c12 [Compound 16] | 0 to 49% | 80 to 100% | 80 to 100% | 0 to 49% | 80 to 100% | 50 to 79% | 80 to 100%
8 | Clc1csc2ncnc(NCCc3ccc(Oc4cccc(-n5cccn5)n4)cc3)c12 [Compound 89] | 80 to 100% | 50 to 79% | 0 to 49% | 0 to 49% | 80 to 100% | 80 to 100% | 80 to 100%
9 | Fc1cccc(Oc2ccc(CCNc3ncnc4scc(Cl)c34)cc2)n1 [Compound 36] | 0 to 49% | 50 to 79% | 0 to 49% | 50 to 79% | 80 to 100% | 80 to 100% | 80 to 100%
10 | Cc1cc(Oc2ccc(CCNc3ncnc4scc(Cl)c34)cc2)cnc1S(C)(=O)=O [Compound 50] | 50 to 79% | 50 to 79% | 80 to 100% | 50 to 79% | 80 to 100% | 0 to 49% | 80 to 100%
11 | COc1cc(C(F)(F)F)cc(Oc2ccc(CC(C)Nc3ncnc4scc(Cl)c34)cc2)n1 (stereo not shown) [Compound 88] | 0 to 49% | 50 to 79% | 0 to 49% | 50 to 79% | 80 to 100% | 80 to 100% | 80 to 100%
12 | N#Cc1ccc(Oc2ccc(CCNc3ncnc4scc(Cl)c34)cc2)nc1 [Compound 4] | 80 to 100% | 50 to 79% | 80 to 100% | 80 to 100% | 80 to 100% | 80 to 100% | 80 to 100%
13 | N#Cc1ccncc1Oc1ccc(CCNc2ncnc3scc(Cl)c23)cc1 [Compound 74] | 80 to 100% | 50 to 79% | 50 to 79% | 80 to 100% | 80 to 100% | 0 to 49% | 80 to 100%
14 | CO/N=C\c1ccc(Oc2ccc(CCNc3ncnc4scc(Cl)c34)cc2)nc1 [Compound 34, 6-{4-[2-(5-Chlorothieno[2,3-d]pyrimidin-4-ylamino)ethyl]phenoxy}pyridine-3-carbaldehyde O-methyloxime] | 0 to 49% | 50 to 79% | 0 to 49% | 80 to 100% | 80 to 100% | 80 to 100% | 80 to 100%
15 | N#Cc1cccnc1Oc1ccc(CCNc2ncnc3scc(Cl)c23)cc1 [Compound 28] | 50 to 79% | 50 to 79% | 0 to 49% | 50 to 79% | 50 to 79% | 0 to 49% | 80 to 100%
16 | FC(F)(F)c1cc(Cl)nc(Oc2ccc(CCNc3ncnc4scc(Cl)c34)cc2)c1 [Compound 62] | 0 to 49% | 50 to 79% | 0 to 49% | 80 to 100% | 80 to 100% | 50 to 79% | 80 to 100%
17 | COc1nc(OC)nc(Oc2ccc(CCNc3ncnc4scc(Cl)c34)cc2)n1 [Compound 26] | 0 to 49% | 0 to 49% | 0 to 49% | 0 to 49% | 50 to 79% | 0 to 49% | 80 to 100%
18 | CC(Cc1ccc(Oc2c(Cl)cnc(C(F)(F)F)c2Cl)cc1)Nc1ncnc2scc(Cl)c12 (stereo not shown) [Compound 94] | 0 to 49% | 0 to 49% | 0 to 49% | 50 to 79% | 80 to 100% | 50 to 79% | 80 to 100%
19 | Brc1csc2ncnc(NCCc3ccc(Oc4ncnc5scc(Br)c45)cc3)c12 [Compound 57] | 0 to 49% | 0 to 49% | 0 to 49% | 50 to 79% | 80 to 100% | 0 to 49% | 80 to 100%
